Drawing on US10093678B2, “Azaspiro derivatives as TRPM8 antagonists” (RaQualia Pharma Inc., priority 2014, dated 2018), this text covers IC50 for 56 molecules.

pIC50: −log10 of the molar value. Structures can show the parent of a compound that is named as a salt.

In the experiment the target is T1, human TRPM8 (Homo sapiens, UniProt Q7Z2W7).
T1 construct: expressed in transfected cells; host or cells: HEK293
T1 sequence (Q7Z2W7 whole entry): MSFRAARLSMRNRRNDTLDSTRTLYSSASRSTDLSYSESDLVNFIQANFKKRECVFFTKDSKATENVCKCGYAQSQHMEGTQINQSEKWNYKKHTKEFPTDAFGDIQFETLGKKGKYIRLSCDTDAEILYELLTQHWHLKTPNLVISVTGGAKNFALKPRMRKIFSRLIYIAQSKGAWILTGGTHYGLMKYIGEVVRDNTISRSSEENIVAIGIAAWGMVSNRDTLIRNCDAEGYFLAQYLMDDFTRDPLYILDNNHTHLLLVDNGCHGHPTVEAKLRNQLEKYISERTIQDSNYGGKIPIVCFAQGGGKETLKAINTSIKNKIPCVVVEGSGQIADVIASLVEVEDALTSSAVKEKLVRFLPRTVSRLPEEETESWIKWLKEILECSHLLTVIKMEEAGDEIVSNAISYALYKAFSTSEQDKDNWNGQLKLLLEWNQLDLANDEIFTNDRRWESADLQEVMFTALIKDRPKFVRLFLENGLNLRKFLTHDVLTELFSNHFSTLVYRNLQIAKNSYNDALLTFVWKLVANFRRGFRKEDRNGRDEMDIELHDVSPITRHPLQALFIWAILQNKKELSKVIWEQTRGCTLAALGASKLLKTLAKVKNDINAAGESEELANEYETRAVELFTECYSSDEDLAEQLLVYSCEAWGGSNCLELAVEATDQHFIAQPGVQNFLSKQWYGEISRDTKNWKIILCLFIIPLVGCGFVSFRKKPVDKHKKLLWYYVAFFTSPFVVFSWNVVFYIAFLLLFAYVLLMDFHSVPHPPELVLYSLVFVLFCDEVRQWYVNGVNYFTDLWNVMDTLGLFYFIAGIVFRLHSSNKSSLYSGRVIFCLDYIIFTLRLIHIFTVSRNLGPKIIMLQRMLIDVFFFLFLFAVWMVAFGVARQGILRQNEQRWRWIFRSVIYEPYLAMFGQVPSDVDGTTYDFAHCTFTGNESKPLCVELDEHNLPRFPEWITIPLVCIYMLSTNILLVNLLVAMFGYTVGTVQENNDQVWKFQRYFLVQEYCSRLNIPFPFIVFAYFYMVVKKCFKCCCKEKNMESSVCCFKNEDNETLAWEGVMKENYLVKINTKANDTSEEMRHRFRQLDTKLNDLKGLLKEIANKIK
Put plainly: Menthol-induced Ca2+ influx in HEK293 cells stably expressing human TRPM8. It is filed as cell-based. The note with it: 30 microM menthol-induced Ca2+ influx, read-out: IC50 against TRPM8. The method, then: Measurement of the Menthol-Induced Ca^2+ Influx in HEK293 Cells Stably Expressing Human TRPM8
A cell-based Ca^2+ influx assay using HEK293 cells stably expressing human TRPM8 is used to identify the activity of compounds.
HEK293 cells stably expressing human TRPM8 are grown in T175 flasks at 37° C. in a 5% CO2 humidified incubator to about 80% confluence. Media composition consists of Dulbecco's Modified Eagle Medium (high glucose), 10% fetal calf serum (FCS), 100 units/mLPenicillin, 100 microg/mL Streptomycin and 600 microg/mL Geneticine. At 24 hours prior to assay, cells are seeded in poly-D-lysine coated 384-well plates (BD FALCON) at a density of 30,000 cells per well in culture medium and grown overnight in 5% CO2 at 37° C. On the assay day, growth media is removed and cells are loaded with 0.5 microM Fluo4-AM (Molecular Probes) and 0.005% Pluronic F-127 dissolved in assay buffer (Hank's balanced salt solution (HBSS), 19.4 mM HEPES pH7.4, 2.5 mM Probenecid) for 1 hour at room temperature. After washing with assay buffer, the cells are preincubated with various concentrations of the compounds for 5 min. The changes in intracellular calcium concentration by addition of 30 microM menthol are monitored by the cell imaging technology by Hamamatsu Photonics Functional Drug Screening System (FDSS).
The IC50 values for compounds of the present invention are determined from 11-point dose-response studies. Curves are generated using the average of duplicate wells for each data point. Finally, the IC50 values are calculated with the best-fit dose curve determined by XLfit (ID Business Solutions Ltd.).
Turning to `Cc1nc2cccnc2n1-c1ccc(C(=O)CN2C(=O)NC3(CCCCC3)C2=O)cn1` [Example 5-33], the pIC50 was over 7.00. The value for `Cc1ccncc1-c1c(F)cc(C(=O)CN2C(=O)NC3(CCC(F)(F)CC3)C2=O)cc1F` [Example 13-30] was over 7.00; that for `N#Cc1nccnc1Oc1ccc(C(=O)CN2C(=O)NC3(CCC(F)(F)CC3)C2=O)cc1` [Example 21-8] was over 7.00; that for `O=C(CN1C(=O)NC2(CCCCC2)C1=O)c1ccc(-c2nccnc2CO)cc1` [Example 7-10] was over 7.00. The figure for `Cc1ccncc1-c1sc(C(=O)CN2C(=O)NC3(CCC(F)(F)CC3)C2=O)nc1C` [Example 18-2] is over 8.00; for `Cc1ccc2nc(C)n(-c3ccc(C(=O)CN4C(=O)NC5(CCCCCC5)C4=O)cc3)c2n1` [Example 5-30] it is over 7.00. For the molecule `Cc1sc(C(=O)CN2C(=O)NC3(CCC(F)(F)CC3)C2=O)c(C)c1-c1ccccc1` [Example 15-8], the pIC50 was over 6.30. The figure for `O=C(CN1C(=O)NC2(CCC(F)(F)CC2)C1=O)c1ccc(-c2cnccc2C(F)(F)F)cc1` [Example 6-41] is over 7.00. The value for `Cc1cc(C(=O)CN2C(=O)NC3(CCC(F)(F)CC3)C2=O)n(C)c1-c1ccccc1F` [Example 16-13] was over 7.00. For the molecule `N#Cc1ccncc1-c1ccc(C(=O)CN2C(=O)NC3(CCC(F)(F)CC3)C2=O)cc1` [Example 6-16], the pIC50 is over 7.00. For the molecule `O=C(CN1C(=O)NC2(CCC(F)(F)CC2)C1=O)c1ccc(-c2cccnc2)cc1` [Example 13-48], the pIC50 was over 7.00. The value for `Cc1c(C(=O)CN2C(=O)NC3(CCC(F)(F)CC3)C2=O)cn(C)c1-c1cccc(C#N)c1` [Example 16-22] was over 7.00; that for `Cc1cnc(C)c(-c2ccc(C(=O)CN3C(=O)NC4(CCCCC4)C3=O)cc2)n1` [Example 7-4] was over 7.00. The figure for `Cc1cc(C(=O)CN2C(=O)NC3(CCC(F)(F)CC3)C2=O)sc1-c1cccc2cccnc12` [Example 14-20] is over 6.30; for `CN(c1ccccc1)c1ccc(C(=O)CN2C(=O)NC3(CCCCC3)C2=O)cn1` [Example 19-5] it is over 7.00; for `COc1cc(C(=O)CN2C(=O)NC3(CCC(F)(F)CC3)C2=O)ccc1-c1cccnc1` [Example 5-3] it is over 7.00. The figure for `Cn1c(C(=O)CN2C(=O)NC3(CCC(F)(F)CC3)C2=O)nc(C2CC2)c1-c1cccnc1` [Example 17-5] is over 7.00; for `Cc1ccncc1-c1ccc(C(=O)CN2CC3(CCC(F)(F)CC3)OC2=O)cc1` [Example 13-53] it is over 7.00; for `O=C(CN1C(=O)NC2(CCC(F)(F)CC2)C1=O)c1ccc(N2CCOc3ccccc32)nc1` [Example 19-7] it is over 7.00. On to `Cc1cc(C(=O)CN2C(=O)NC3(CCCCC3)C2=O)sc1-c1cccnc1` [Example 14-1], for which the negative-log IC50 (pIC50) is over 7.00.

As to `O=C(CN1C(=O)NC2(CCC(F)(F)CC2)C1=O)c1ccc(-n2c(C(F)(F)F)nc3cccnc32)cc1` [Example 24-6, 8,8-difluoro-3-(2-oxo-2-(4-(2-(trifluoromethyl)-3H-imidazo[4,5-b]pyridin-3-yl)phenyl)ethyl)-1,3-diazaspiro[4.5]decane-2,4-dione], the pIC50 was over 7.00. The value for `Cc1ccncc1-c1ccc(C(=O)CN2C(=O)NC3(CCC(F)(F)CC3)C2=O)n1C` [Example 16-2] was over 7.00; that for `Cc1cc(C(=O)CN2C(=O)NC3(CCC(F)(F)CC3)C2=O)n(C)c1-c1ccccc1` [Example 4-3] was over 7.00. The figure for `O=C(CN1C(=O)OC2(CCC(F)(F)CC2)C1=O)c1ccc(-c2nccc3ccncc23)cc1` [Example 7-22] is over 8.00; for `CCc1nc2cccnc2n1-c1ccc(C(=O)CN2C(=O)NC3(CCC(F)(F)CC3)C2=O)cc1` [Example 24-2] it is over 6.30; for `Cc1cc(C(=O)CN2C(=O)NC3(CCC(F)(F)CC3)C2=O)ccc1-c1cc(F)cc(F)c1` [Example 13-16] it is over 7.00.

With `CN(c1ccccn1)c1ccc(C(=O)CN2C(=O)NC3(CCCCC3)C2=O)cn1` [Example 19-2], the pIC50 is over 7.00. The figure for `COc1cc(C(=O)CN2C(=O)NC3(CCC(F)(F)CC3)C2=O)ccc1-c1cccc(F)c1` [Example 5-4] is over 6.30. For the molecule `COc1cccc(-c2c(C)cc(C(=O)CN3C(=O)NC4(CCC(F)(F)CC4)C3=O)n2C)c1` [Example 16-14], the pIC50 was over 7.00.

For `NCc1ccccc1-c1ccc(C(=O)CN2C(=O)NC3(CCC(F)(F)CC3)C2=O)cc1` [Example 6-55, 3-(2-(2′-(aminomethyl)-[1,1′-biphenyl]-4-yl)-2-oxoethyl)-8,8-difluoro-1,3-diazaspiro[4.5]decane-2,4-dione hydrochloride], the pIC50 is over 7.00. Regarding `Cc1nc(C(=O)CN2C(=O)NC3(CCC(F)(F)CC3)C2=O)n(C)c1-c1ccccc1CO` [Example 17-10], the pIC50 is over 7.00.

As to `Cc1c(C(=O)CN2C(=O)NC3(CCC(F)(F)CC3)C2=O)cn(C)c1-c1cccnc1` [Example 16-26], the pIC50 was over 6.30. The figure for `CCOc1ncccc1-c1ccc(C(=O)CN2C(=O)NC3(CCC(F)(F)CC3)C2=O)cc1` [Example 6-39] is over 7.00; for `O=C(CN1C(=O)NC2(CCC(F)(F)CC2)C1=O)c1ccc(-c2nccc3[nH]ncc23)cc1` [Example 6-20] it is over 7.00; for `O=C(CN1C(=O)NC2(CCC(F)(F)CC2)C1=O)c1ccc(Oc2cccnn2)cc1` [Example 5-22] it is over 7.00. For `Cc1cc(C(=O)CN2C(=O)NC3(CCC(F)(F)CC3)C2=O)sc1-c1cncc(F)c1` [Example 14-17], the pIC50 is over 7.00.

In the case of `Cc1nc2nccnc2n1-c1ccc(C(=O)CN2C(=O)NC3(CCC(F)(F)CC3)C2=O)cc1` [Example 19-39], the pIC50 was over 6.30. The figure for `Cn1c(-c2cccc(C#N)c2)cnc1C(=O)CN1C(=O)NC2(CCC(F)(F)CC2)C1=O` [Example 17-3] is over 7.00. The value for `O=C(CN1C(=O)NC2(CCC(F)(F)CC2)C1=O)c1ccc(-c2ccnc3[nH]ncc23)cc1` [Example 6-1] was over 8.00; that for `O=C(CN1C(=O)NC2(CCC(F)(F)CC2)C1=O)c1ccc(-c2cccc3[nH]ccc23)cc1` [Example 13-42] was over 7.00.

In the case of `Cc1nc(C(=O)CN2C(=O)NC3(CCC(F)(F)CC3)C2=O)sc1-c1cccc2ccncc12` [Example 18-10], the pIC50 was over 7.00.

Regarding `COc1cccnc1-c1ccc(C(=O)CN2C(=O)NC3(CCC(F)(F)CC3)C2=O)cc1` [Example 6-84], the pIC50 was over 7.00. The figure for `N#Cc1ccnnc1Oc1ccc(C(=O)CN2C(=O)NC3(CCC(F)(F)CC3)C2=O)cc1` [Example 21-12, 3-(4-(2-(8,8-difluoro-2,4-dioxo-1,3-diazaspiro[4.5]decan-3-yl)acetyl)phenoxy)pyridazine-4-carbonitrile] is over 7.00; for `O=C(CN1C(=O)NC2(CCC(F)(F)CC2)C1=O)c1ccc(-n2c(=O)oc3ccccc32)nc1` [Example 19-14] it is over 8.00.

In the case of `O=C(CN1C(=O)NC2(CCC(F)(F)CC2)C1=O)c1ccc(Oc2cncnc2)cc1` [Example 21-15], the pIC50 was over 6.30. The value for `O=C(CN1C(=O)NC2(CCC(F)(F)CC2)C1=O)c1ccc(-n2cnc3ccccc32)nc1` [Example 5-12] was over 7.00; that for `O=C(CN1C(=O)NC2(CCCCCC2)C1=O)c1ccc(Oc2cccnn2)cc1` [Example 5-41] was over 7.00; that for `Cc1ccc2nc(C(F)(F)F)n(-c3ccc(C(=O)CN4C(=O)NC5(CCC(F)(F)CC5)C4=O)cc3)c2n1` [Example 24-7, 8,8-difluoro-3-(2-(4-(5-methyl-2-(trifluoromethyl)-3H-imidazo[4,5-b]pyridin-3-yl)phenyl)-2-oxoethyl)-1,3-diazaspiro[4.5]decane-2,4-dione] was over 8.00. Regarding `O=C(CN1C(=O)NC2(CCCCC2)C1=O)c1ccc(-c2ccccc2)cc1F` [Example 13-20], the pIC50 was over 7.00. The value for `O=C(CN1C(=O)NC2(CCC(F)(F)CC2)C1=O)c1ccc(-c2ccnc3ccccc23)nc1` [Example 9-18] was over 7.00; that for `O=C(CN1C(=O)NC2(CCC(F)(F)CC2)C1=O)c1ccc(-n2c(CO)nc3cccnc32)cc1` [Example 28-4, 8,8-difluoro-3-(2-(4-(2-(hydroxymethyl)-3H-imidazo[4,5-b]pyridin-3-yl)phenyl)-2-oxoethyl)-1,3-diazaspiro[4.5]decane-2,4-dione] was over 6.30. The value for `O=C(CN1C(=O)OC2(CCC(F)(F)CC2)C1=O)c1ccc(-c2ncccn2)cc1` [Example 7-26] was over 7.00.

With `Cc1ccncc1-c1ccc(C(=O)CN2C(=O)NC3(CCCCC3)C2=O)cc1` [Example 7-2], the pIC50 is over 7.00. The figure for `COc1ccncc1-c1sc(C(=O)CN2C(=O)NC3(CCC(F)(F)CC3)C2=O)cc1C` [Example 14-16] is over 7.00; for `Cn1c(C(=O)CN2C(=O)NC3(CCC(F)(F)CC3)C2=O)cnc1-c1ccccc1` [Example 4-11] it is over 6.30; for `O=C(CN1C(=O)NC2(CCC(F)(F)CC2)C1=O)c1ccc(Oc2ncccn2)cc1` [Example 5-20] it is over 7.00.
